Here are results for one compound from US5219854A, “Blood platelet-decreasing method” (Nissan Chemical Industries Ltd., priority 1991, dated 1993).

Data set [1] in a line: Acute toxicity test after single oral administration, mouse. Particulars: in vivo, mouse (ICR strain, 6 weeks old), read-out: 50% lethal dose (LD50). On the procedure: (§1) These compounds have low toxicities and thus may be sufficiently used for medical products. For example, the 50% lethal dose (LD50) in the acute toxicity tests after single oral administration of 4 brome-5-(3-ethoxy-4-methoxybenzylamino)-3(2H)-pyridazinone as a typical compound thereof, was 2,000 mg/kg with respect to each of mouse (ICR strain, 6 weeks old), rat (SD strain, 6 weeks old) and dog (beagle, 6 months old).

A short description of data set [2]: Subjective symptoms, diagnosis by doctor, scientific and clinical examination during repeated oral administration. In kind it is in vivo, human (healthy adult males). The settings on record: oral 40 mg three times a day for 7 days; until 29th day after the termination. On the procedure:
(§2) To each of six healthy adult males (23 to 32 years age, average: 28 years age), two tablets each containing 20 mg of 4-bromo-5-(3-ethoxy-4-methoxybenzylamino)-3(2H)-pyridazinone (Compound A) were orally administered (40 mg) three times a day (120 mg) in the morning, noon and evening for 7 days (on the 7th day, administered only in the morning). Examinations were conducted with respect to the following four items from the time before the administration to the time until the 29th day after the termination of administration.
Everyday during the period of examination, each testee records the subjective symptoms.
A doctor makes diagnoses by asking, or ansculating and percussioning, and records their observations.
Blood pressure, pulse rate, body temperature, breathing rate, ECG (12 derivatives), pulmonary function (FVC, FEV1.0%), and visual or acoustic observation
(§3) Erythrocyte count, leukocyte count, hemoglobin quantity, hematocrit value, blood platelet count, reticulocyte count, leukocyte fraction and prothrombin time
Total protein, albumin, A/G ratio (protein fraction), BUN, creatinine, uric acid, total cholesterol, neutral fats, Na, K, Cl, Al-P, LAP, GOT, GPT, LDH, γ-GTP, ZTT, TTT, CPK, total bilirubin, direct bilirubin and blood sugar
Specific gravity, pH, bilirubin, urobilinogen, ketone body, sugar, protein and sedimentation

The next data set relates to blood platelet count. Nature of the data set: Change of blood platelet count at the time of repeated administration of Compound A. The class given is in vivo, human (healthy adult males). As to the method:
as §2
(1) Hematological Examination
as §3

The nature of data set [3]: Acute toxicity test after single oral administration, dog. Particulars: in vivo, dog (beagle, 6 months old), read-out: 50% lethal dose (LD50). As to the method: as §1
The nature of data set [4]: Acute toxicity test after single oral administration, rat. The settings on record: in vivo, rat (SD strain, 6 weeks old), read-out: 50% lethal dose (LD50). On the procedure:
as §1

In the case of `CCOc1cc(CNc2cn[nH]c(=O)c2Br)ccc1OC` [Compound A, 4-bromo-5-(3-ethoxy-4-methoxybenzylamino)-3(2H)-pyridazinone], the LD50 in data set [1], in data set [3] and in data set [4] was 2000 mg/kg throughout. Besides, in data set [2], the “Symptoms or changes in all items of examinations other than the blood platelet count” value is on record as “no problematic symptom or change has been observed”. Also, the “Blood platelet count, average value ± a standard deviation” value is given as 14.1 ± 2.0 ×10^4 /μl in the data set with blood platelet count (1st day after the termination of administration, oral 40 mg three times a day for 7 days, ***p < 0.001 vs before administration (paired t-test)); 20.4 ± 2.2 ×10^4 /μl in the data set with blood platelet count (6th day after the termination of administration, oral 40 mg three times a day for 7 days, **p < 0.01 vs before administration (paired t-test)); 29.2 ± 3.9 ×10^4 /μl with blood platelet count (29th day after the termination of administration, oral 40 mg three times a day for 7 days); 25.0 ± 2.7 ×10^4 /μl in the data set on blood platelet count (3 days after the initiation of administration, oral 40 mg three times a day (120 mg/day), **p < 0.01 vs before administration (paired t-test)); 27.6 ± 2.6 ×10^4 /μl in the data set with blood platelet count (before the initiation of administration (baseline), six healthy adult males).

By LD50 is commonly meant the dose expected to kill half of the subjects tested.
